From patent publication US10172830B2, “Pyrazolone compounds having human neutrophil elastase inhibitory properties” (CHIESI FARMACEUTICI S.P.A., priority 2016, dated 2019)

Target: T1, human neutrophil elastase (HNE) (Homo sapiens, UniProt P08246)
T1 construct: purchased Sigma E8140
T1 sequence (P08246 30-247 limits assumed): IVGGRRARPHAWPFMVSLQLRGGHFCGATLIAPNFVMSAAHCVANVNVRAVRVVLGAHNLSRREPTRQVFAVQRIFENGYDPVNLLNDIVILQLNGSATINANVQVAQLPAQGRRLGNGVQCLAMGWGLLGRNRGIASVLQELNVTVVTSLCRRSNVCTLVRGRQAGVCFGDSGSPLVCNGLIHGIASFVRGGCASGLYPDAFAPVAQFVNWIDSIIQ
Assay: HNE enzyme assay (human neutrophil elastase enzyme activity assay)
Type: biochemical
Conditions: human leukocyte elastase 0.00072 U/mL; substrate MeOSuc-Ala-Ala-Pro-Val-AMC 100 μM; 25° C. for 30 minutes; at least two separate experiments; read-out: HNE inhibition (HNE enzyme inhibition, IC50 values)
Outline: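 Human leukocyte elastase (0.00072 U/mL) with 100 μM MeOSuc-AAPV-AMC in Tris/NaCl/CaCl2/Brij-35 buffer, pH 7.5, 1% DMSO, 30 min at 25 °C; stopped with soybean trypsin inhibitor. AMC fluorescence (380/460 nm) as % inhibition of control; IC50 from dose-response curves, ≥2 experiments.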

| SMILES | IC50 |
| --- | --- |
| Cn1c(-c2ccnn2-c2ccc(C#N)cc2)c(C(=O)N[C@H]2CC[C@H](CNC(=O)C[N+](C)(C)C)CC2)c(=O)n1-c1cccc(C(F)(F)F)c1 [Example 54, {[(Trans-4-{[2′-(4-cyano-phenyl)-2-methyl-5-oxo-1-(3-trifluoromethyl-phenyl)-2,5-dihydro-1H,2′H-[3,3′]bipyrazolyl-4-carbonyl]-amino}-cyclohexylmethyl)-carbamoyl]-methyl}-trimethyl-ammonium benzene sulphonate] | < 1 nM |
| Cn1c(-c2ccnn2-c2ccc(C#N)cc2)c(C(=O)N[C@H]2C[C@H](C(=O)NC3CC[N+](C)(C)CC3)C2)c(=O)n1-c1cccc(C(F)(F)F)c1 [Example 55, 4-[(Trans-3-{[2′-(4-cyano-phenyl)-2-methyl-5-oxo-1-(3-trifluoromethyl-phenyl)-2,5-dihydro-1H,2′H-[3,3′]bipyrazolyl-4-carbonyl]-amino}-cyclobutanecarbonyl)-amino]-1,1-dimethyl-piperidinium benzene sulphonate] | < 1 nM |
| C[C@H](NC(=O)c1c(-c2ccnn2-c2ccc(C#N)cc2)n(C)n(-c2cccc(C(F)(F)F)c2)c1=O)C(=O)N(C)C1CC[N+](C)(C)CC1 [Example 56, 4-[((S)-2-{[2′-(4-Cyano-phenyl)-2-methyl-5-oxo-1-(3-trifluoromethyl-phenyl)-2,5-dihydro-1H,2′H-[3,3′]bipyrazolyl-4-carbonyl]-amino}-propionyl)-methyl-amino]-1,1-dimethyl-piperidinium benzene sulphonate] | < 1 nM |
| Cn1c(-c2ccnn2-c2ccc(C#N)cc2)c(C(=O)NC2(C(=O)NCC[N+](C)(C)C)CCCC2)c(=O)n1-c1cccc(C(F)(F)F)c1 [Example 57, {2-[(1-{[2′-(4-Cyano-phenyl)-2-methyl-5-oxo-1-(3-trifluoromethyl-phenyl)-2,5-dihydro-1H,2′H-[3,3′]bipyrazolyl-4-carbonyl]-amino}-cyclopentanecarbonyl)-amino]-ethyl}-trimethyl-ammonium benzene sulphonate] | < 1 nM |
| Cn1c(-c2ccnn2-c2ccc(C#N)cc2)c(C(=O)N[C@H]2CC[C@H](C(=O)NC3CC[N+](C)(C)CC3)CC2)c(=O)n1-c1cccc(C(F)(F)F)c1 [Example 58, 4-[(4-{[2′-(4-Cyano-phenyl)-2-methyl-5-oxo-1-(3-trifluoromethyl-phenyl)-2,5-dihydro-1H,2′H-[3,3′]bipyrazolyl-4-carbonyl]-amino}-cyclohexanecarbonyl)-amino]-1,1-dimethyl-piperidinium benzene sulphonate] | < 1 nM |
| Cn1c(-c2ccnn2-c2ccc(C#N)cc2)c(C(=O)N[C@H]2CC[C@H](C(=O)OC3CC[N+](C)(C)CC3)CC2)c(=O)n1-c1cccc(C(F)(F)F)c1 [Example 59, 4-(Trans-4-{[2′-(4-cyano-phenyl)-2-methyl-5-oxo-1-(3-trifluoromethyl-phenyl)-2,5-dihydro-1H,2′H-[3,3′]bipyrazolyl-4-carbonyl]-amino}-cyclohexanecarbonyloxy)-1,1-dimethyl-piperidinium benzene sulphonate] | < 1 nM |
| Cn1c(-c2ccnn2-c2ccc(C#N)cc2)c(C(=O)N[C@H]2CC[C@H](C(=O)N3CCC([N+](C)(C)C)CC3)CC2)c(=O)n1-c1cccc(C(F)(F)F)c1 [Example 60, [1-(4-{[2′-(4-Cyano-phenyl)-2-methyl-5-oxo-1-(3-trifluoromethyl-phenyl)-2,5-dihydro-1H,2′H-[3,3′]bipyrazolyl-4-carbonyl]-amino}-cyclohexanecarbonyl)-piperidin-4-yl]-trimethyl-ammonium benzene sulphonate] | < 1 nM |
| CN(CC[N+](C)(C)C)C(=O)C1(NC(=O)c2c(-c3ccnn3-c3ccc(C#N)cc3)n(C)n(-c3cccc(C(F)(F)F)c3)c2=O)CCCC1 [Example 61, {2-[(1-{[2′-(4-Cyano-phenyl)-2-methyl-5-oxo-1-(3-trifluoromethyl-phenyl)-2,5-dihydro-1H,2′H-[3,3′]bipyrazolyl-4-carbonyl]-amino}-cyclopentanecarbonyl)-methyl-amino]-ethyl}-trimethyl-ammonium benzene sulphonate] | < 1 nM |
| Cn1c(-c2ccnn2-c2ccc(C#N)cc2)c(C(=O)N[C@H]2CC[C@H](OC(=O)C[N+](C)(C)C)CC2)c(=O)n1-c1cccc(C(F)(F)F)c1 [Example 62, (Trans-4-{[2′-(4-cyano-phenyl)-2-methyl-5-oxo-1-(3-trifluoromethyl-phenyl)-2,5-dihydro-1H,2′H-[3,3′]bipyrazolyl-4-carbonyl]-amino}-cyclohexyloxycarbonylmethyl)-trimethyl-ammonium benzene sulphonate] | < 1 nM |
| Cn1c(-c2ccnn2-c2ccc(C#N)cc2)c(C(=O)NC2CCN(C(=O)CC[N+](C)(C)C)CC2)c(=O)n1-c1cccc(C(F)(F)F)c1 [Example 63, 3-(4-{[2′-(4-Cyano-phenyl)-2-methyl-5-oxo-1-(3-trifluoromethyl-phenyl)-2,5-dihydro-1H,2′H-[3,3′]bipyrazolyl-4-carbonyl]-amino}-piperidin-1-yl)-3-oxo-propyl]-trimethyl-ammonium benzene sulphonate] | < 1 nM |
| Cn1c(-c2ccnn2-c2ccc(C#N)cc2)c(C(=O)NC2(C)CCN(C(=O)C[N+](C)(C)C)CC2)c(=O)n1-c1cccc(C(F)(F)F)c1 [Example 64, [2-(4-{[2′-(4-Cyano-phenyl)-2-methyl-5-oxo-1-(3-trifluoromethyl-phenyl)-2,5-dihydro-1H,2′H-[3,3′]bipyrazolyl-4-carbonyl]-amino}-4-methyl-piperidin-1-yl)-2-oxo-ethyl]-trimethyl-ammonium benzene sulphonate] | < 1 nM |
| Cn1c(-c2ccnn2-c2ccc(C#N)cc2)c(C(=O)N[C@H]2CC[C@H](C(=O)OCC[N+](C)(C)C)CC2)c(=O)n1-c1cccc(C(F)(F)F)c1 [Example 65, [2-(Trans-4-{[2′-(4-cyano-phenyl)-2-methyl-5-oxo-1-(3-trifluoromethyl-phenyl)-2,5-dihydro-1H,2′H-[3,3′]bipyrazolyl-4-carbonyl]-amino}-cyclohexanecarbonyloxy)-ethyl]-trimethyl-ammonium benzene sulphonate] | < 1 nM |
| C[C@H](NC(=O)c1c(-c2ccnn2-c2ccc(C#N)cc2)n(C)n(-c2cccc(C(F)(F)F)c2)c1=O)C(=O)N1CCC[N+](C)(C)CC1 [Example 66, 4-((S)-2-{[2′-(4-Cyano-phenyl)-2-methyl-5-oxo-1-(3-trifluoromethyl-phenyl)-2,5-dihydro-1H,2′H-[3,3′]bipyrazolyl-4-carbonyl]-amino}-propionyl)-1,1-dimethyl-[1,4]diazepan-1-ium benzene sulphonate] | < 1 nM |
| Cn1c(-c2ccnn2-c2ccc(C#N)cc2)c(C(=O)N[C@H]2CC[C@H](c3ncc(C[N+](C)(C)C)o3)CC2)c(=O)n1-c1cccc(C(F)(F)F)c1 [Example 67, [2-(Trans-4-{[2′-(4-Cyano-phenyl)-2-methyl-5-oxo-1-(3-trifluoromethyl-phenyl)-2,5-dihydro-1H,2′H-[3,3′]bipyrazolyl-4-carbonyl]-amino}-cyclohexyl)-oxazol-5-ylmethyl]-trimethyl-ammonium benzene sulphonate] | < 1 nM |
